Tests used:
MOF (KAT8) = target: T1, MOF (KAT8) (Homo sapiens, UniProt Q9H7Z6); assay: MALDI-TOF MS enzymatic assay of MOF-catalyzed acetylation of histone peptides; assay type: biochemical; conditions: 100 µM peptide, 300 µM AcCoA, pH 8.0, 37 °C; for acetylation (conversion to acetylated peptide) by MOF: after 3 h, 2 µM MOF, 50 mM Hepes, 0.1 mM EDTA, 1 mM DTT, MALDI-TOF MS
T1 construct: Human MOF catalytic domain (residues 125–458 in pET19b); His-tag; made in house; host or cells: E. coli BL21(DE3)
T1 sequence (Q9H7Z6 125-458): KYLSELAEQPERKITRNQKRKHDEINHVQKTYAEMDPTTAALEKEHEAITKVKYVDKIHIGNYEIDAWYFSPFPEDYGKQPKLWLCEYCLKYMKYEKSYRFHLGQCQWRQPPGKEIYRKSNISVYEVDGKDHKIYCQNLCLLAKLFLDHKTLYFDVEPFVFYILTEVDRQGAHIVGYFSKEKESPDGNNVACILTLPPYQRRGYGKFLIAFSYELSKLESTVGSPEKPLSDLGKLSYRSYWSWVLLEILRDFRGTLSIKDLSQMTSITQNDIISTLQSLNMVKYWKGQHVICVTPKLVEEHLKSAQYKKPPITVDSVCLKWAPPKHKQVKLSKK
Procedure: MALDI-TOF MS enzymatic assays were carried out to investigate KAT-catalyzed acetylation of synthetic histone peptides. The enzymatic activity of the recombinantly expressed human KATs was measured at different time points (2 µM KAT enzyme, 100 µM histone peptide, 300 µM AcCoA, buffer: 50 mM Hepes, 0.1 mM EDTA, 1 mM DTT, pH = 8.0, 37 °C, hereafter used as standard conditions) (Fig. 3b,c). […] It is noteworthy that diacetylation of histone peptides was not detected under our assay conditions, due to preacetylation of the secondary site on H3. […] As further control, H4 and H3 peptides containing stereochemically inverted D-lysine were synthesized.
The KAT enzymatic activity towards histone peptides was measured at different time points under standard conditions (2 µM KAT enzyme, 100 µM peptide, 300 µM AcCoA) in the reaction buffer (50 mM HEPES, 0.1 mM EDTA, 1 mM DTT, pH = 8.0). The reactions were carried out in a final volume of 50 µL and shaken up in a Thermomixer C at 750 rpm, at 37 °C. The reactions were quenched by the addition of TFA 10% in MilliQ water at different time points. All reactions were aliquoted and mixed 1:2 with a solution of α-Cyano-4-hydroxycinnamic acid (CHCCA) in 1:1 MQ and ACN (0.1% TFA) and loaded onto an MTP 384 polished steel target to be analyzed by a UltrafleXtreme-II tandem mass spectrometer (Bruker, Billerica, MA, USA).

MOF catalytic domain = target: T2, MOF catalytic domain (Homo sapiens, UniProt Q9H7Z6); assay: MALDI-TOF MS kinetics assay, MOF; assay type: biochemical; conditions: for kcat^app / Km: MOF catalytic domain 570 nM (2 µM for unnatural analogs), peptide 1,050–0 µM, pH 7.4, 37 °C, MALDI-TOF MS, duplicates, value ± SD, SD; for kcat^app: AcCoA 100 µM (saturating), 50 mM HEPES, 0.1 mM EDTA, 0.01% TRITON-X; for Km: AcCoA 100 µM, read-out: Km^app; for kcat^app/Km^app: same kinetics conditions
T2 construct: Human MOF catalytic domain (residues 125–458 in pET19b); His-tag; made in house; host or cells: E. coli BL21(DE3)
T2 sequence (Q9H7Z6 125-458): T1 sequence (Q9H7Z6 125-458)
Text: Kinetic analysis of bi-substrate enzymes, such as KATs, is reckoned to be challenging and dependent on many factors. Firstly, given the nature of these enzymes, the binding of one of the two substrates directly influences the binding of the other (with a direct effect on the Michaelis–Menten parameter Km). […] Therefore, to obtain data that would allow us to directly compare the catalytic properties of the selected KATs towards our selection of histone peptides bearing lysine analogs with longer side chains, two strategies to standardize our kinetic evaluation were taken: i) all the experiments were carried out with the same saturating concentrations of AcCoA and ii) only KATs catalytic domains were employed in the study. […] In contrast, kcat values decreased substantially with an increase of the side chain length, both in the K14 and K9 peptide series, and for both PCAF and GCN5 (Table 1).
Histone peptides kinetics evaluation was carried out with a MALDI-TOF MS assay under steady-state conditions[57],[58]. Histone peptides (1,050–0 µM) were incubated with AcCoA (100 µM) and the reactions were started by the addition of the enzyme (MOF 570 nM, PCAF and GCN5 50 nM) in a final volume of 20 µL in kinetic buffer (50 mM HEPES, 0.1 mM EDTA, 0.01% TRITON-X, pH = 7.4). For histone peptides bearing unnatural lysine analogs, higher concentration of enzymes was used (MOF, PCAF and GCN5 2 µM). […] AcCoA stock solutions in milli-Q water were calibrated with a NanoDrop 2000 spectrophotometer (Thermo Scientific, Waltham, MA, USA), employing the characteristic molar extinction coefficient ε260nm = 16,400 M^−1 cm^−1. Reactions were incubated at 37 °C, shaken at 750 rpm and quenched with TFA 10% in milli-Q water at different time points, within linear production of acetylated peptides extrapolated from time-course plots. All reactions were aliquoted and mixed 1:2 with a solution of α-cyano-4-hydroxycinnamic acid (CHCCA) in 1:1 MQ and ACN (0.1% TFA) and loaded onto MTP 384 polished steel target to be analyzed by UltrafleXtreme-II tandem mass spectrometer (Bruker). The amount of acetylated peptide was calculated by integration of the product peak area and divided it by the amount of unacetylated peptide, taking in account all the ionic species, at any concentration points using the FlexAnalysis software. Kinetic values were extrapolated by fitting V0 values (µM of produced peptide per minutes) and histone peptide concentrations to the Michaelis–Menten equation using the GraphPad Prism 5 software. Kinetic experiments were carried out in duplicates and final values are reported as value ± SD.

Row | Sequence | time to full acetylation by MOF (MOF (KAT8); standard conditions: 2 µM MOF) | kcat^app (MOF catalytic domain) | Km (MOF catalytic domain) | kcat^app/Km^app (MOF catalytic domain; MOF) | acetylation (conversion to acetylated peptide) by MOF (MOF (KAT8)) | Km lower than that of H4hK16 (MOF catalytic domain; MOF)
1 | GGA K16 RHRKVLRDNIQ [H4K16, reference compound] | 30 min | 0.385 ± 0.0167 s⁻¹ | 593 ± 86 µM | 648 M⁻¹ s⁻¹ |  | 
2 | GGA h2K16 RHRKVLRDNIQ [H4h2K16, 15-mer histone H4 peptide with h2K at position 16] |  | 0.001 ± 0.00017 s⁻¹ | 82.2 ± 15 µM | 12 M⁻¹ s⁻¹ | 90% | fourfold lower
3 | GGA hK 16 RHRKVLRDNIQ [H4hK16, 15-mer histone H4 peptide with hLys at position 16] |  | 0.0045 ± 0.0017 s⁻¹ | 344 ± 99 µM | 13 M⁻¹ s⁻¹ | 95% | 

Source: publication PMC7400623, “Effect of lysine side chain length on histone lysine acetyltransferase catalysis” (Scientific Reports, 2020)
